Assay: HILIC, Waters ACQUITY UPLC BEH Amide, 100 × 2.1 mm, 1.7 µm; A: water + 0.125% formic acid + 10 mM ammonium formate; B: 5% water + 95% acetonitrile + 0.125% formic acid + 10 mM ammonium formate; gradient (min/%B) 0/100 2/100 7.7/70 9.5/40 10.25/30 12.75/100 17/100
Conditions: stereoisomer not certain

Row | Compound | LC retention time
1 | Nc1nc2ccc(Cl)cc2c2nc(-c3ccco3)nn12 | 1.07 min
2 | NC1CCN(c2cccc(Cl)n2)CC1 | 4.85 min
3 | C=C(C)CN1CCC23c4c5ccc(O)c4OC2c2[nH]c4ccccc4c2CC3(O)C1C5 (stereo not given) | 2.93 min
4 | Cc1sc(N)c(C(=O)c2cccc(C(F)(F)F)c2)c1C | 0.94 min
5 | Br.CN1CCC2(c3cccc(O)c3)Cc3nc4ccccc4cc3CC2C1.O (stereo not given) | 5.11 min
6 | CN1CCN(c2nc3cc(C(F)(F)F)ccc3n3cccc23)CC1 | 2.21 min
7 | COC(=O)N1CCN(C(=O)Cc2ccc(Cl)c(Cl)c2)C(CN2CCCC2)C1 (stereo not given) | 2.56 min
8 | COc1ccc2[nH]cc(C3=CCNCC3)c2c1 | 4.61 min
9 | OC1CCCCC1O (stereo not given) [1,2-Cyclohexanediol] | 4.88 min
10 | O=C1CCCCC1=O [1,2-Cyclohexanedione] | 5.77 min
11 | O=C1CCCC(=O)C1 [1,3 Cyclohexanedione] | 1.47 min
12 | CC12CCC3c4ccc(O)cc4CCC3C1CCC2=O (stereo not given) [1,3,5(10)-Estratrien-3-ol-17-one] | 1.01 min
13 | Cn1c(=O)c2c([nH]c(=O)n2C)n(C)c1=O [1,3,7-Trimethyluric acid] | 1.83 min
14 | O=C1CCC(=O)CC1 [1,4-Cyclohexanedione] | 1.15 min
15 | Cn1c(=O)[nH]c2[nH]c(=O)n(C)c2c1=O [1,7-Dimethyluric acid] | 4.09 min
16 | Cn1c(=O)[nH]c2ncn(C)c2c1=O [1,7-Dimethylxanthine] | 1.69 min
17 | c1ccc(Cn2ccnc2)cc1 [1-Benzylimidazole] | 1.63 min
18 | C[n+]1cccc(C(N)=O)c1 [1-Methylnicotinamide] | 6.26 min
19 | Cn1c(=O)[nH]c2[nH]c(=O)[nH]c2c1=O [1-Methyluric acid] | 2.18 min
20 | O=c1[nH]cnc2c1ncn2C1CCC(CO)O1 (stereo not given) [2',3'-Dideoxyinosine] | 3.44 min

Row | Compound | LC retention time
21 | Nc1ncnc2c1ncn2C1CC(O)C(CO)O1 (stereo not given) [2'-Deoxyadenosine] | 3.92 min
22 | Nc1nc2c(ncn2C2CC(O)C(CO)O2)c(=O)[nH]1 (stereo not given) [2'-Deoxyguanosine] | 6.4 min
23 | Nc1ccn(C2CCC(CO)O2)c(=O)n1 (stereo not given) [2,3-Dideoxycytidine] | 4.54 min
24 | O=c1ccn(C2CCC(CO)O2)c(=O)[nH]1 (stereo not given) [2,3-Dideoxyuridine] | 1.73 min
25 | O=c1ccc2cccc(O)c2[nH]1 [2,8-Quinolinediol] | 1.53 min
26 | NCCc1ccccn1 [2-(2-Aminoethyl)pyridine] | 5.52 min
27 | NCC(=O)c1ccccc1 [2-Aminoacetophenone] | 1.08 min
28 | NCCS [2-Aminoethanethiol] | 2.05 min
29 | NCCP(=O)(O)O [2-Aminoethylphosphonic acid] | 9.39 min
30 | Nc1ccccc1O [2-Aminophenol] | 1.22 min
31 | Nc1nc(Cl)nc2c1ncn2C1OC(CO)C(O)C1O (stereo not given) [2-Chloroadenosine] | 2.69 min
32 | O=c1ccc2ccccc2[nH]1 [2-Hydroxyquinoline] | 1.51 min
33 | Oc1cc2ccccc2[nH]1 [2-Indolinone] | 1.36 min
34 | C=Cc1ccc(O)c(OC)c1 [2-Methoxy-4-vinylphenol] | 8.71 min
35 | NC(=O)Cc1ccccc1 [2-Phenylacetamide] | 1.26 min
36 | O=c1cccc[nH]1 [2-Pyridone] | 2.05 min
37 | Nc1ncnc2c1ncn2C1CC2OP(=O)(O)OCC2O1 (stereo not given) [3',5'-Cyclic dAMP] | 7.29 min
38 | COc1ccc(C=O)cc1OC [3,4-Dimethoxybenzaldehyde] | 1.08 min
39 | CCNC(C)Cc1ccc2c(c1)OCO2 (stereo not given) [3,4-Methylenedioxyethamphetamine] | 2.94 min
40 | O=Cc1cccc(O)c1 [3-Hydroxybenzaldehyde] | 1.18 min

Now from value to compound:

Row | LC retention time | Compound
41 | 3.89 min | Nc1ccc(O)c(C(=O)O)c1
42 | 1.5 min | CC(=O)NCCCCCCNC(C)=O
43 | 1.12 min | COCC1=C(C(=O)OC(C)OC(=O)OC(C)C)N2C(=O)C(NC(=O)C(=NOC)c3csc(N)n3)C2SC1 (stereo not given)
44 | 9.52 min | Cc1cc2nc3c(=O)[nH]c(=O)nc-3n(CC(O)C(O)C(O)COP(=O)(O)OP(=O)(O)OCC3OC(n4cnc5c(N)ncnc54)C(O)C3O)c2cc1C (stereo not given)
45 | 1.56 min | O=C(O)C1CCC(C(=O)O)CC1 (stereo not given) [1,4-Cyclohexanedicarboxylic acid]
46 | 0.92 min | OCC1OCC(O)C(O)C1O (stereo not given) [1,5-Anhydrosorbitol]
47 | 1.37 min | CC(=O)n1ccnc1 [1-Acetylimidazole]
48 | 9.1 min | Cn1cnc(C[C@H](N)C(=O)O)c1 [1-Methyl-L-histidine]
49 | 7.46 min | Cn1cnc2c(ncn2C2OC(CO)C(O)C2O)c1=N (stereo not given) [1-Methyladenosine]
50 | 5.84 min | Cn1c(N)nc2c(ncn2C2OC(CO)C(O)C2O)c1=O (stereo not given) [1-Methylguanosine]
51 | 4.99 min | Cn1cc(C2OC(CO)C(O)C2O)c(=O)[nH]c1=O (stereo not given) [1-Methylpseudouridine]
52 | 6.38 min | Cn1cc(CC(N)C(=O)O)c2ccccc21 (stereo not given) [1-Methyltryptophan]
53 | 0.99 min | CCCCCCCCCCCCCCCCCC(=O)OCC(O)CO (stereo not given) [1-Monostearin]
54 | 8.63 min | Nc1ncnc2c1ncn2C1CC(O)C(COP(=O)(O)O)O1 (stereo not given) [2'-Deoxyadenosine-5'-monophosphate]
55 | 5.87 min | Nc1ccn(C2CC(O)C(CO)O2)c(=O)n1 (stereo not given) [2'-Deoxycytidine]
56 | 9.43 min | Nc1nc2c(ncn2C2CC(OP(=O)(O)O)C(CO)O2)c(=O)[nH]1 (stereo not given) [2'-Deoxyguanosine 3'-monophosphate]
57 | 9.25 min | Nc1nc2c(ncn2C2CC(O)C(COP(=O)(O)O)O2)c(=O)[nH]1 (stereo not given) [2'-Deoxyguanosine 5'-monophosphate]
58 | 4.93 min | COC1C(O)C(CO)OC1n1cc(C)c(N)nc1=O (stereo not given) [2'-O-Methyl-5-methylcytidine]
59 | 1.75 min | COC1C(O)C(CO)OC1n1cc(C)c(=O)[nH]c1=O (stereo not given) [2'-O-Methyl-5-methyluridine]
60 | 5.02 min | COC1C(O)C(CO)OC1n1ccc(N)nc1=O (stereo not given) [2'-O-Methylcytidine]
61 | 5.72 min | COC1C(O)C(CO)OC1n1cnc2c(=O)[nH]c(N)nc21 (stereo not given) [2'-O-Methylguanosine]
62 | 4.06 min | COC1C(O)C(CO)OC1n1cnc2c(=O)[nH]cnc21 (stereo not given) [2'-O-Methylinosine]
63 | 2.24 min | COC1C(O)C(CO)OC1n1ccc(=O)[nH]c1=O (stereo not given) [2'-O-Methyluridine]
64 | 3.34 min | CC(O)C(C)O (stereo not given) [2,3-Butanediol]
65 | 9.88 min | NC(CCCC(N)C(=O)O)C(=O)O (stereo not given) [2,6-Diaminopimelic acid]
66 | 1.27 min | COc1cccc(C(=O)O)c1N [2-Amino-3-methoxybenzoic acid]
67 | 1.47 min | OCC1OC(n2cnc3c(NC4CCCC4)nc(Cl)nc32)C(O)C1O (stereo not given) [2-Chloro-N6-cyclopentyladenosine]
68 | 9.16 min | Nc1ccn(C2CC(O)C(COP(=O)(O)O)O2)c(=O)n1 (stereo not given) [2-Deoxycytidine-5-monophosphoric acid]

Row | LC retention time | Compound
69 | 1.42 min | O=CCC(O)C(O)CO (stereo not given) [2-Deoxyribose]
70 | 2.96 min | O=c1ccn(C2CC(O)C(CO)O2)c(=O)[nH]1 (stereo not given) [2-Deoxyuridine]
71 | 1.39 min | CCCC=CC=O [2-Hexenal]
72 | 1.29 min | CC(C)C(O)C(=O)O (stereo not given) [2-Hydroxy-3-methylbutyric acid]
73 | 1.57 min | CC(C)CC(O)C(=O)O (stereo not given) [2-Hydroxy-4-methylpentanoic acid]
74 | 4.36 min | O=C(CO)c1ccccc1 [2-Hydroxyacetophenone]
75 | 1.01 min | O=C(C=Cc1ccccc1O)c1ccccc1 [2-Hydroxychalcone]
76 | 0.91 min | O=C(O)CCC(O)C(=O)O (stereo not given) [2-Hydroxyglutaric acid]
77 | 1.01 min | CCCCCCCCCCCCCC(=O)OC(CO)CO [2-Myristoylglycerol]
78 | 0.99 min | CCCCCCCCCCCCCCCC(=O)OC(CO)CO [2-Palmitoylglycerol]
79 | 5.37 min | CCC(=O)NCC(=O)O [2-Propanamidoacetic acid]
80 | 5.33 min | Nc1ccn(C2OC(CO)C(O)C2O)c(=S)n1 (stereo not given) [2-Thiocytidine]
81 | 2.48 min | O=c1ccn(C2OC(CO)C(O)C2O)c(=S)[nH]1 (stereo not given) [2-Thiouridine]
82 | 9.47 min | OCC1OC(OC2C(O)OC(CO)C(O)C2O)C(O)C(O)C1O (stereo not drawn) [2-alpha-Mannobiose]
83 | 5.09 min | COC1C(CO)OC(n2ccc(N)nc2=O)C1O (stereo not given) [3'-O-Methylcytidine]
84 | 5.8 min | COC1C(CO)OC(n2cnc3c(=O)[nH]c(N)nc32)C1O (stereo not given) [3'-O-Methylguanosine]
85 | 2.42 min | COC1C(CO)OC(n2ccc(=O)[nH]c2=O)C1O (stereo not given) [3'-O-Methyluridine]
86 | 2.3 min | O=C(O)C(O)c1ccc(O)c(O)c1 (stereo not given) [3,4-Dihydroxymandelic acid]
87 | 8.31 min | NC(Cc1ccc(O)c(O)c1)C(=O)O (stereo not given) [3,4-Dihydroxyphenylalanine]
88 | 7.54 min | NC(Cn1cccn1)C(=O)O (stereo not given) [3-(1-Pyrazolyl)-alanine]
89 | 7.42 min | NC(CC(=O)O)c1ccc(O)cc1 (stereo not given) [3-Amino-3-(4-hydroxyphenyl)propionic acid]
90 | 7.4 min | CC(CN)C(=O)O (stereo not given) [3-Aminoisobutyric acid]
91 | 8.06 min | Nc1cc(CC(N)C(=O)O)ccc1O (stereo not given) [3-Aminotyrosine]
92 | 7.13 min | NC(Cc1ccc(O)c(Cl)c1)C(=O)O (stereo not given) [3-Chlorotyrosine]
93 | 2.87 min | O=c1ccn(C2OC(CO)CC2O)c(=O)[nH]1 (stereo not given) [3-Deoxyuridine]
94 | 8.15 min | NC(N)=NCCC(=O)O [3-Guanidinopropionic acid]
95 | 1.48 min | Nc1c(O)cccc1C(=O)O [3-Hydroxyanthranilic acid]

— the RepoRT retention time repository
